The values below come from patent US6716836B2, “Non-nucleoside reverse transcriptase inhibitors” (Boehringer Ingelheim (Canada) Ltd., priority 2001, dated 2004).

SMILES strings stand for the structures.

For test [1], the system named is HIV replication in T-lymphocytes, virus coding for wild type enzyme. The test is described as follows: ELISA (p24) assay for activity in cell culture, wild type virus. It counts as cell-based. The following applies: Human immunodeficiency virus 1, T-lymphocyte, read-out: EC50 WT RT. The method, then: (§1) ELISA Assay for Assessment of Activity in Cell Culture
(§2) Compounds of the invention were tested for their ability to inhibit HIV replication in cell culture. Viruses coding for Wild type and mutant enzymes were used. T-lymphocytes were infected with the virus, infected cells were incubated in the presence of varying amounts of compounds of the invention, and an ELISA assay for the viral protein p24 was used to quantify viral replication. Table 9 lists the results as EC50 (nM).

Test [2] addresses T1, HIV-1 RT double mutant K103N/Y181C (Human immunodeficiency virus type 1 group M subtype B, UniProt P04585, K690N/Y768C).
T1 construct: Heterodimeric RT was eluted using a descending gradient; made in house; host or cells: E. coli (inferred; the text describes only wild type and Y181C preparations)
Put plainly: Reverse Transcriptase (RT) assay, double mutant enzyme. It is filed as biochemical. An excerpt: (§3) Among the enzymes for which Human Immunodeficiency Virus (HIV-1) encodes is a reverse transcriptase (1), so-named because it transcribes a DNA copy from an RNA template. This activity can be quantitatively measured in a cell-free enzyme assay, which has been previously described (2), and is based upon the observation that reverse transcriptase is able to use a synthetic template poly r(C) primed with oligo d(G) to transcribe a radio-labelled, acid-precipitable DNA strand utilising ^3H-dGTP as a substrate. The assay described below utilises the wild type (WT) enzyme, which is the predominant form of the enzyme observed with patients infected with HIV-1. Utilisation of mutant RT enzymes (for example, Y181C, prepared by site-directed mutagenesis in which the tyrosine residue at codon 181 has been replaced by a cysteine residue, or the mutants K103N, V106A and Y188C) and analogous assay conditions allows compounds to be evaluated for their effectiveness at inhibiting the mutant enzymes.
(§4) The HIV-1 RT expression clone, pKRT2, was obtained from Yale University (3). An overnight culture, grown in 2×YT medium (37° C., 225 rpm) (4), supplemented with 100 μg/mL ampicillin for positive selection was used to inoculate the 2×YT medium. The culture was incubated (37° C., 225 rpm) until it reached an OD600 of 0.6-0.9. At that time, the repressor inhibitor IPTG (isopropyl P-D-thiogalactopyranoside) was added to 0.5 mM, and the mixture was incubated for an additional 2 hours.
(§5) Purification of recombinant reverse transcriptase was performed using a combination of methods previously described (5). This procedure is summarised briefly as follows: E. Coli containing RT-1 wt or RT-1 (Y181 C) were suspended in 50 mM MES, pH 6.0 containing 10% glycerol, lysed in a French press, centrifuged, and the supernates discarded. Lysate pellets were extracted with buffer A (50 mM MES, pH 6.0, 100 mM KCl, 50 mM KPi, 10% glycerol, 0.02% hexyl-β-glucoside), and re-centrifuged; nucleic acid in supernates was precipitated with 0.1% polyethylenimine. […] Bound RT was eluted with a gradient of 0 to 1.0M
(§6) (NH4)2 SO4 in buffer B. Heparin-Sepharose fractions containing RT were concentrated (Amicon YM-30 membrane), combined with equal volumes of 2.0M (NH4)2SO4 in buffer B and injected onto a 21.5×150 mm TSK Phenyl-5PW HIC HPLC column (Phenomenex). Heterodimeric RT was eluted using a descending gradient of 1.0M to 0M (NH4)2SO4 in buffer B, concentrated, and stored at 4° C.
(§7) The 2.4× concentrated stock reaction mixture was aliquoted and stored at −20° C. The mixture is stable and can be thawed for use in each assay. This enzyme assay has been adapted to a 96 well microtiter plate system, and has been previously described (6). Tris buffer (50 mM, pH 7.8), vehicle (solvent diluted to match the compound dilution), or compounds in vehicle were dispensed into 96-well microtiter plates (10 μL/well; 3 wells/compound). The HIV-1 RT enzyme was thawed, diluted in 50 mM Tris pH 7.8 containing 0.05% Chaps to give 1.5 nM enzyme and 25 μL were dispensed per well. Ten μL of 0.5M EDTA were added to the first three wells of the microtiter plate. EDTA chelates the Mg^2+ present and prevents reverse transcription. This group served as background polymerisation, which was subtracted, from all other groups. Twenty-five μl of the 2.4× reaction mixture was added to all wells and the assay was allowed to incubate at room temperature for 30 minutes. The assay was terminated by precipitating the DNA in each well with 60 μL of sodium pyrophosphate (2% w/v) in 10% trichloroacetic acid (TCA) (10% w/v). The microtiter plate was incubated for 15 minutes at 4° C. and the precipitate was harvested onto #30 glass fibre paper (Schleicher & Schuell) using a Tomtech 96-well harvester. The filters were dried, placed in plastic bags with Betaplate scintillation cocktail (Pharmacia/LKB) and counted in the Betaplate counter (Pharmacia/LKB).
(§8) The calculation for percent inhibition is as follows: [formula] […]

In test [3] the test system is HIV replication in T-lymphocytes, virus coding for mutant enzyme K103N/Y181C. The test is described as follows: ELISA (p24) assay for activity in cell culture, mutant virus. The following applies: Human immunodeficiency virus 1, T-lymphocyte, read-out: EC50 K103N/Y181C. It counts as cell-based. The method, then:
as §1, §2

For test [4], the target named is T2, HIV-1 RT wild type (WT) (Human immunodeficiency virus type 1 group M subtype B, UniProt P04585).
T2 construct: Heterodimeric RT was eluted using a descending gradient; made in house; host or cells: E. coli
Put plainly: Reverse Transcriptase (RT) assay, wild type enzyme. It counts as biochemical.
Text: as §3, §4, §5, §6, §7, §8

As to `CCN1c2ncc(CCOc3cccc4c3CS(=O)(=O)N4CCO)cc2C(=O)N(C)c2cccnc21` [Compound 129], the EC50 in test [1] and in test [3] was less than 100 nM throughout. Moreover, the IC50 in test [2] and in test [4] was less than 100 nM throughout.

Turning to `CCN1c2ncc(CCOc3cccc4c3CS(=O)(=O)N4Cc3cc[n+]([O-])cc3)cc2C(=O)N(C)c2cccnc21` [Compound 130], the EC50 in test [1] and in test [3] was less than 100 nM each time. The IC50 in test [2] and in test [4] was less than 100 nM in each case.

Consider `CCN1c2ncc(CCOc3cccc4c3CS(=O)(=O)N4CC(=O)O)cc2C(=O)N(C)c2cccnc21` [Compound 127], for which the values for the EC50 in test [1] and in test [3] were less than 100 nM and 100 to 1000 nM, respectively. Further, the IC50 in test [2] is 100 to 1000 nM; in test [4] it was less than 100 nM.

Take `CCN1c2ncc(CCOc3cccc4c3CCS(=O)(=O)N4CC(=O)NC(C)(C)C(=O)NN)cc2C(=O)N(C)c2cccnc21` [Compound 641]: the EC50 in test [1] and in test [3] was less than 100 nM each time. The IC50 in test [2] and in test [4] was less than 100 nM each time.

`CCN1c2ncc(CCOc3cccc4c3CCS(=O)(=O)N4CCCS(N)(=O)=O)cc2C(=O)N(C)c2cccnc21` [Compound 630]: the EC50 in test [1] and in test [3] was less than 100 nM throughout. Besides, the IC50 in test [2] and in test [4] was less than 100 nM in each case.

For the compound `CCN1c2ncc(CCOc3cccc4c3CCN(CCCC(=O)O)S4(=O)=O)cc2C(=O)N(C)c2cccnc21` [Compound 713], the EC50 in test [1] and in test [3] was less than 100 nM each time. Besides, the IC50 in test [2] and in test [4] was less than 100 nM throughout.

Turning to `CCN1c2ncc(CCOc3cccc4c3CCS(=O)(=O)N4CC(=O)NS(C)(=O)=O)cc2C(=O)N(C)c2cccnc21` [Compound 631], the EC50 in test [1] and in test [3] was 100 to 1000 nM throughout. For the same compound, the IC50 in test [2] and in test [4] was less than 100 nM each time.

Turning to `CCN1c2ncc(CCOc3cccc4c3CCS(=O)(=O)N4)cc2C(=O)Nc2c(C)cc(F)nc21` [Compound 602], the EC50 in test [1] and in test [3] was less than 100 nM in each case. Also, the concentration for half-maximal inhibition (IC50) in test [2] and in test [4] was less than 100 nM in each case.

Consider `CCN1c2ncc(CCOc3cccc4c3CS(=O)(=O)N4Cc3ccc[n+]([O-])c3)cc2C(=O)N(C)c2cccnc21` [Compound 132], for which the EC50 in test [1] and in test [3] was less than 100 nM throughout. Moreover, the IC50 in test [2] and in test [4] was less than 100 nM each time.

On to `CCN1c2ncc(CCOc3cccc4c3CS(=O)(=O)N4CC(C)C(=O)O)cc2C(=O)N(C)c2cccnc21` (stereo not shown) [Compound 138], for which the EC50 in test [1] and in test [3] was less than 100 nM throughout. Further, the IC50 in test [2] and in test [4] was less than 100 nM in each case.

For `CCN1c2ncc(CCOc3cccc4c3CCS(=O)(=O)N4CCN3CCOCC3)cc2C(=O)N(C)c2cccnc21` [Compound 617], the EC50 in test [1] and in test [3] was less than 100 nM throughout. Moreover, the IC50 in test [2] and in test [4] was less than 100 nM in each case.

Take `CCN1c2ncc(CCOc3cccc4c3CS(=O)(=O)N4CC(=O)Nc3cc[n+]([O-])cc3)cc2C(=O)N(C)c2cccnc21` [Compound 141]: the EC50 in test [1] and in test [3] was less than 100 nM throughout. For the same compound, the IC50 in test [2] and in test [4] was less than 100 nM each time.

`CCN1c2ncc(CCOc3cccc4c3CCS(=O)(=O)N4CC(=O)NC3(C(=O)O)CC3)cc2C(=O)N(C)c2cccnc21` [Compound 638]: the EC50 in test [1] and in test [3] was less than 100 nM each time. Also, the IC50 in test [2] and in test [4] was less than 100 nM each time.

For `CCN1c2ncc(CCOc3cccc4c3CCN(CCCC(=O)NN)S4(=O)=O)cc2C(=O)N(C)c2cccnc21` [Compound 714], the EC50 in test [1] and in test [3] was less than 100 nM throughout. The IC50 in test [2] and in test [4] was less than 100 nM each time.

Regarding `CCN1c2ncc(CCOc3cccc4c3CS(=O)(=O)N4Cc3cc[n+]([O-])cc3)cc2C(=O)Nc2c(C)ccnc21` [Compound 136], the EC50 in test [1] and in test [3] was less than 100 nM throughout. The IC50 in test [2] and in test [4] was less than 100 nM each time.

As for `CCN1c2ncc(CCOc3cccc4c3CCS(=O)(=O)N4CCCC(=O)NN)cc2C(=O)N(C)c2cccnc21` [Compound 636], the EC50 in test [1] and in test [3] was less than 100 nM in each case. In addition, the concentration for half-maximal inhibition (IC50) in test [2] and in test [4] was less than 100 nM in each case.

Take `CCN1c2ncc(CCOc3cccc4c3CS(=O)(=O)N4C)cc2C(=O)Nc2c(C)cc(C)nc21` [Compound 117]: the EC50 in test [1] is less than 100 nM. Further, the IC50 in test [2] and in test [4] was less than 100 nM throughout.

In the case of `CCN1c2ncc(CCOc3cccc4c3CCS(=O)(=O)N4CCCC(=O)NNCC(F)(F)F)cc2C(=O)N(C)c2cccnc21` [Compound 640], the EC50 in test [1] and in test [3] was less than 100 nM in each case. For the same compound, the IC50 in test [2] and in test [4] was less than 100 nM each time.

As to `CCN1c2ncc(CCOc3cccc4c3CCS(=O)(=O)N4Cc3cccnc3)cc2C(=O)N(C)c2cccnc21` [Compound 629], the EC50 in test [1] and in test [3] was less than 100 nM in each case. For the same compound, the IC50 in test [2] and in test [4] was less than 100 nM in each case.

Consider `CCN1c2ncc(CCOc3cccc4c3CS(=O)(=O)N4Cc3cccnc3)cc2C(=O)N(C)c2cccnc21` [Compound 131], for which the EC50 in test [1] and in test [3] was less than 100 nM in each case. For the same compound, the concentration for half-maximal inhibition (IC50) in test [2] and in test [4] was less than 100 nM throughout.

For the compound `CCN1c2ncc(CCOc3cccc4c3CCS(=O)(=O)N4)cc2C(=O)N(C)c2cccnc21` [Compound 601], the EC50 in test [1] and in test [3] was less than 100 nM throughout. Further, the IC50 in test [2] and in test [4] was less than 100 nM each time.

Turning to `CCN1c2ncc(CCOc3cccc4c3C=CS(=O)(=O)N4C)cc2C(=O)Nc2c(C)ccnc21` [Compound 804], the EC50 in test [1] and in test [3] was less than 100 nM in each case. In addition, the IC50 in test [2] and in test [4] was less than 100 nM in each case.

As for `CCN1c2ncc(CCOc3cccc4c3CNS4(=O)=O)cc2C(=O)N(C)c2cccnc21` [Compound 202], the EC50 in test [1] and in test [3] was less than 100 nM each time. The IC50 in test [2] and in test [4] was less than 100 nM in each case.

On to `CCN1c2ncc(CCOc3cccc4c3CS(=O)(=O)N4)cc2C(=O)N(C)c2cccnc21` [Compound 101], for which the IC50 is 100 to 1000 nM in test [2] and less than 100 nM in test [4]. Moreover, the EC50 in test [3] was less than 100 nM.
